ChEMBL document CHEMBL1152084 (Bioorg Med Chem Lett, 1997)

How the values were obtained:
[1] = target: Platelet-derived growth factor receptor beta (Rattus norvegicus, UniProt Q05030); experiment: Inhibition of PDGF-BB induced PDGF-B receptor autophosphorylation in rat mesangial cells.; assay type: functional, cell-based
[2] = target: Epidermal growth factor receptor (Homo sapiens, UniProt P00533); experiment: Inhibition of epidermal growth factor receptor (EGF-R) autophosphorylation in A431 cells; assay type: functional, cell-based, A-431
[3] = target: Mitogen-activated protein kinase; ERK1/ERK2 (Homo sapiens, UniProt P27361+P28482); experiment: Inhibition of Mitogen-activated protein kinase; assay type: protein assay
[4] = target: cAMP-dependent protein kinase (PKA) (Homo sapiens, UniProt P22694+P17612+P22612); experiment: Inhibition of Protein kinase A; assay type: protein assay
[5] = target: Cyclin-dependent kinase 1 (Homo sapiens, UniProt P06493); experiment: Inhibition of Cdc2
[6] = target: Proto-oncogene tyrosine-protein kinase Src (Homo sapiens, UniProt P12931); experiment: Inhibition of c-SRC
[7] = target: Protein kinase C (PKC); experiment: Inhibition of Protein kinase C; assay type: protein assay

Sequence of Platelet-derived growth factor receptor beta (Q05030 whole entry): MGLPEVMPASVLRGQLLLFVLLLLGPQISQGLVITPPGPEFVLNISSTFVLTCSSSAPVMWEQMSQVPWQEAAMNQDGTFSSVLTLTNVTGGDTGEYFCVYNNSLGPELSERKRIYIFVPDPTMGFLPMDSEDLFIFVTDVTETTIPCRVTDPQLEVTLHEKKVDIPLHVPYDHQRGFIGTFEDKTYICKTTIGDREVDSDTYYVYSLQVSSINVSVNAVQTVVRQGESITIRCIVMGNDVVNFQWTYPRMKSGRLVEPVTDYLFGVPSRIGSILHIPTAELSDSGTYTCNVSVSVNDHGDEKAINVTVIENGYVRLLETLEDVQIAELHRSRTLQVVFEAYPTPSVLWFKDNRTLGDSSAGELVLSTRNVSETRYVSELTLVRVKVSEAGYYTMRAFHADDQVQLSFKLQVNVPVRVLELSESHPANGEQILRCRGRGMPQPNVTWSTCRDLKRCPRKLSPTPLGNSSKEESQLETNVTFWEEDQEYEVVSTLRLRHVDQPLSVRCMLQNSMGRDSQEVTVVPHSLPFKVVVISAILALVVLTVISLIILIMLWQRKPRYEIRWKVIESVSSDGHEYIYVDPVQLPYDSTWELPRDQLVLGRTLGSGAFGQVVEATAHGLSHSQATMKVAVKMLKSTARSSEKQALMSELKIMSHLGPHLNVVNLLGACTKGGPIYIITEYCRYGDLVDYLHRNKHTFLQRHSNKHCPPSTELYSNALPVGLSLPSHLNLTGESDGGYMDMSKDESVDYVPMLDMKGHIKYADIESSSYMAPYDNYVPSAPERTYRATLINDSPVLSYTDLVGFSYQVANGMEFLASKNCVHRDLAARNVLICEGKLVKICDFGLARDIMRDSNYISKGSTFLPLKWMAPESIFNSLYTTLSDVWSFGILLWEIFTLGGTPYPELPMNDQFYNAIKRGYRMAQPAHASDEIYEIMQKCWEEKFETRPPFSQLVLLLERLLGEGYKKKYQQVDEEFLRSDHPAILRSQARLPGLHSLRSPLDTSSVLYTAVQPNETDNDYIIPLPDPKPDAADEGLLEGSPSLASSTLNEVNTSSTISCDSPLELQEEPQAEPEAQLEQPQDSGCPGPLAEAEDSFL
Sequence of Epidermal growth factor receptor (P00533 whole entry): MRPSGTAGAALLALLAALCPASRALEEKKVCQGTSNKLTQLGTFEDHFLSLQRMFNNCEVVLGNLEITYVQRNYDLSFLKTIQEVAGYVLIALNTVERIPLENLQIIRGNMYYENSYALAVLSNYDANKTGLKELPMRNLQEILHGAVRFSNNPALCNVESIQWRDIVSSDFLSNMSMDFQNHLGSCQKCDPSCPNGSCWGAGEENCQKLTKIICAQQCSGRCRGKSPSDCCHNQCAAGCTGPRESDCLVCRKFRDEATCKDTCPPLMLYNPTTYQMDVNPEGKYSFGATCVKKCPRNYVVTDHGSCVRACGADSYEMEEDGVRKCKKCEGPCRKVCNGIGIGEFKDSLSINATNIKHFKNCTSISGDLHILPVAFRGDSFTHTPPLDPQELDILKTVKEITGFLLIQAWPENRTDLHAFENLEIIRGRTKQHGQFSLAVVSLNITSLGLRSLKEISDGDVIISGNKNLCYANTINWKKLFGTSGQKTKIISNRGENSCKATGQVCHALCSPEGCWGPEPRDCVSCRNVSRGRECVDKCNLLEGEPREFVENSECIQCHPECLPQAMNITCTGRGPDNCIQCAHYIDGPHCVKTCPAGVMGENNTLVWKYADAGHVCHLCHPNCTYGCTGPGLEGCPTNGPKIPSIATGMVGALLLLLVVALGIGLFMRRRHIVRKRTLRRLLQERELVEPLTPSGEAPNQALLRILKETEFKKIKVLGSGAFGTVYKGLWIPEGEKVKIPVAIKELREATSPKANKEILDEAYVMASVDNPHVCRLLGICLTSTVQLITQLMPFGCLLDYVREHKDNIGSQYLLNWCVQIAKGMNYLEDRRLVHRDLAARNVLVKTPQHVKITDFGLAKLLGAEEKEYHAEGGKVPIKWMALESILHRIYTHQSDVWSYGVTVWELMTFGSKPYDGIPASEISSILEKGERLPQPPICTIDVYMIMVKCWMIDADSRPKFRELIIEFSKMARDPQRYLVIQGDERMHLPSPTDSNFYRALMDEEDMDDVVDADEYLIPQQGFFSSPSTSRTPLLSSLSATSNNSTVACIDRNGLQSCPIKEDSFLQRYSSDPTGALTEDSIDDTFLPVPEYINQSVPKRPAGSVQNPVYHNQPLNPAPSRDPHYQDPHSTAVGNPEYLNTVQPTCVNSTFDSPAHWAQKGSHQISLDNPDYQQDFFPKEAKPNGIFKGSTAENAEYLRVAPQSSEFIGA
Sequence of Cyclin-dependent kinase 1 (P06493 whole entry): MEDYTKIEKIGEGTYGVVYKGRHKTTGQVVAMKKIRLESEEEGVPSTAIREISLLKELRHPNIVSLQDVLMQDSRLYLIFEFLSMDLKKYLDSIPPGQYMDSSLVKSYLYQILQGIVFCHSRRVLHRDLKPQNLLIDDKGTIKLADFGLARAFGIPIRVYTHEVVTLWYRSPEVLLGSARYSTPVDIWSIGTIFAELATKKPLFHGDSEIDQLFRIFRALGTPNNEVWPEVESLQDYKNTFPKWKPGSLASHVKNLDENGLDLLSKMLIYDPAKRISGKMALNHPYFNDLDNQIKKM
Sequence of Proto-oncogene tyrosine-protein kinase Src (P12931 2-536 limits assumed): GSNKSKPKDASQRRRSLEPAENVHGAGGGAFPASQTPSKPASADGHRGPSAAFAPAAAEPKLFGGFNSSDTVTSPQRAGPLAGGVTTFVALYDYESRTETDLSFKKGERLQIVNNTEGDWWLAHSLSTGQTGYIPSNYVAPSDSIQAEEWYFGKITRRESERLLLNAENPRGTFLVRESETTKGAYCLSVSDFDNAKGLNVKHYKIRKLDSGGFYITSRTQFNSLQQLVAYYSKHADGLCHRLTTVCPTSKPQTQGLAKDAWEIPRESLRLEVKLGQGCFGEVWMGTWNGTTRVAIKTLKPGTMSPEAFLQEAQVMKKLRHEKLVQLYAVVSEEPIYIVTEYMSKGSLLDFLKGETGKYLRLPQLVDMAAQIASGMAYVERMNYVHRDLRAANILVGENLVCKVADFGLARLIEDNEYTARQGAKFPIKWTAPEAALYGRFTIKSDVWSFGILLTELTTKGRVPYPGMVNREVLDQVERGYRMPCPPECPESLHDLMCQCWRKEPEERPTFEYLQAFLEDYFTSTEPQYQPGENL

IC50 [1] | SMILES | other results
0.7 µM | COc1cc2nccc(Oc3cccc([N+](=O)[O-])c3)c2cc1OC | –
1.7 µM | COc1cc2nccc(Oc3cccc(N)c3)c2cc1OC | –
69.3 µM | COc1cc2nccc(Oc3c(OC)cccc3OC)c2cc1OC | –
12.9 µM | CCOc1cccc(Oc2ccnc3cc(OC)c(OC)cc23)c1 | –
4.5 µM | COc1ccc(Nc2ncnc3cc(OC)c(OC)cc23)cc1OC | IC50 [2]: 2800 nM
– | COc1ccc(Oc2ccnc3cc(OC)c(OC)cc23)cc1OC | IC50 [3]: > 10 µM; IC50 [4]: > 10 µM; IC50 [5]: > 10 µM; IC50 [6]: > 10 µM; IC50 [7]: > 20 µM
14.8 µM | COc1cc2ncnc(Oc3cccc(Br)c3)c2cc1OC | IC50 [2]: 70 nM
0.6 µM | COc1cc2nccc(Oc3ccccc3OC)c2cc1OC | –
4.4 µM | COc1cc2nccc(Oc3cccc(OC)c3OC)c2cc1OC | –
8.4 µM | CCc1cccc(Oc2ccnc3cc(OC)c(OC)cc23)c1 | –
0.56 µM | COc1cc2nccc(Oc3cccc(O)c3)c2cc1OC | –
8.4 µM | COc1cc2nccc(Oc3cccc(Br)c3)c2cc1OC | IC50 [2]: 2500 nM
5.5 µM | COc1cc(OC)cc(Oc2ccnc3cc(OC)c(OC)cc23)c1 | –
21.5 µM | COc1cc2nccc(Nc3cccc(Br)c3)c2cc1OC | –
2.6 µM | COc1ccc(Nc2ccnc3cc(OC)c(OC)cc23)cc1OC | IC50 [2]: 80500 nM
0.57 µM | COc1ccc(Oc2ncnc3cc(OC)c(OC)cc23)cc1OC | IC50 [2]: > 100000 nM
1.5 µM | COc1cc2nccc(Oc3cccc(F)c3)c2cc1OC | –
1.9 µM | COc1ccc(Oc2ccnc3cc(OC)c(OC)cc23)cc1 | –
0.76 µM | COc1cc2nccc(Oc3ccccc3)c2cc1OC | –
6.9 µM | COc1cc2nccc(Oc3cccc(C)c3)c2cc1OC | –
